Assay results taken from ChEMBL document CHEMBL1150095, “Antitumor activity and stereochemistry of acetylenic alcohols from the sponge Cribrochalina vasculum” (1995).

Columns and labels:
Type in all cases: functional
[1] = test system: SK-MEL-2; experiment: Antitumor activity against human SK-MEL-2 cells
[2] = test system: ACHN; experiment: Antitumor activity against human ACHN cells
[3] = Antitumor activity against human Hs 578T cells
[4] = test system: SF-268; experiment: Antitumor activity against human SF268 cells
[5] = test system: HT-29; experiment: Antitumor activity against human HT-29 cells
[6] = test system: UACC-62; experiment: Antitumor activity against human UACC62 cells
[7] = test system: SK-MEL-28; experiment: Antitumor activity against human SK-MEL-28 cells
[8] = test system: SNB-75; experiment: Antitumor activity against human SNB75 cells
[9] = test system: TK-10; experiment: Antitumor activity against human TK10 cells
[10] = test system: T47D; experiment: Antitumor activity against human T47D cells
[11] = test system: A498; experiment: Antitumor activity against human A498 cells
[12] = test system: OVCAR-3; experiment: Antitumor activity against human OVCAR-3 cells
[13] = test system: MDA-MB-435; experiment: Antitumor activity against human MDA-MB-435 cells
[14] = test system: SK-MEL-5; experiment: Antitumor activity against human SK-MEL-5 cells
[15] = test system: CCRF-CEM; experiment: Antitumor activity against human CCRF-CEM cells
[16] = test system: MDA-MB-231; experiment: Antitumor activity against human MDA-MB-231 cells
[17] = test system: BT-549; experiment: Antitumor activity against human BT549 cells
[18] = test system: SN12C; experiment: Antitumor activity against human SN12C cells
[19] = test system: NCI-H23; experiment: Antitumor activity against human NCI-H23 cells
[20] = test system: HL-60(TB); experiment: Antitumor activity against human HL-60(TB) cells
[21] = test system: PC-3; experiment: Antitumor activity against human PC3 cells
[22] = test system: Malme-3M; experiment: Antitumor activity against human MALME-3M cells
[23] = test system: SW-620; experiment: Antitumor activity against human SW620 cells
[24] = test system: K562; experiment: Antitumor activity against human K562 cells
[25] = test system: DU-145; experiment: Antitumor activity against human DU145 cells
[26] = test system: SF-295; experiment: Antitumor activity against human SF295 cells
[27] = test system: MDA-N; experiment: Antitumor activity against human MDA-N cells
[28] = test system: MOLT-4; experiment: Antitumor activity against human MOLT4 cells
[29] = test system: RXF 393; experiment: Antitumor activity against human RXF393 cells
[30] = test system: NCI-H522; experiment: Antitumor activity against human NCI-H522 cells
[31] = read-out: pLC50 (the source's name) (converted)

C#C[C@@H](O)/C=C/CCCCCCCCC/C=C\CCCCCC
CC50 [1, 31]: 83.2 nM | TGI ([1]; read-out: pTGI (converted)): 23.4 nM | GI50 [2]: 45.7 nM | CC50 [2, 31]: 141 nM | TGI ([2]; read-out: pTGI (converted)): 79.4 nM | GI50 [3]: 44.7 nM | CC50 [3, 31]: 170 nM | TGI ([3]; read-out: pTGI (converted)): 87.1 nM | GI50 [4]: 38.9 nM | CC50 [4, 31]: 138 nM | TGI ([4]; read-out: pTGI (converted)): 74.1 nM | GI50 [5]: 30.9 nM | CC50 [5, 31]: 138 nM | TGI ([5]; read-out: pTGI (converted)): 66.1 nM | GI50 [6]: 38.9 nM | CC50 [6, 31]: 135 nM | TGI ([6]; read-out: pTGI (converted)): 72.4 nM | GI50 [7]: 41.7 nM | CC50 [7, 31]: 138 nM | TGI ([7]; read-out: pTGI (converted)): 75.9 nM | GI50 [8]: 12.3 nM | CC50 [8, 31]: 107 nM | TGI ([8]; read-out: pTGI (converted)): 43.6 nM | GI50 [9]: 60.3 nM | CC50 [9, 31]: 155 nM | TGI ([9]; read-out: pTGI (converted)): 97.7 nM | GI50 [10]: 6.31 nM | CC50 [10, 31]: 115 nM | TGI ([10]; read-out: pTGI (converted)): 42.7 nM | GI50 [11]: 58.9 nM | CC50 [11, 31]: 155 nM | TGI ([11]; read-out: pTGI (converted)): 95.5 nM | GI50 [12]: 49 nM | CC50 [12, 31]: 145 nM | TGI ([12]; read-out: pTGI (converted)): 85.1 nM | GI50 [13]: 26.9 nM | CC50 [13, 31]: 126 nM | TGI ([13]; read-out: pTGI (converted)): 57.5 nM | GI50 [14]: 32.4 nM | CC50 [14, 31]: 129 nM | TGI ([14]; read-out: pTGI (converted)): 64.6 nM | GI50 [15]: 0.631 nM | CC50 [15, 31]: 61.7 nM | TGI ([15]; read-out: pTGI (converted)): 1.55 nM | GI50 [16]: 47.9 nM | CC50 [16, 31]: 145 nM | TGI ([16]; read-out: pTGI (converted)): 83.2 nM | GI50 [17]: 38.9 nM | CC50 [17, 31]: 135 nM | TGI ([17]; read-out: pTGI (converted)): 72.4 nM | GI50 [18]: 28.8 nM | CC50 [18, 31]: 123 nM | TGI ([18]; read-out: pTGI (converted)): 58.9 nM | GI50 [19]: 13.5 nM | CC50 [19, 31]: 110 nM | TGI ([19]; read-out: pTGI (converted)): 45.7 nM | GI50 [20]: 10.2 nM | CC50 [20, 31]: 129 nM | TGI ([20]; read-out: pTGI (converted)): 36.3 nM | GI50 [21]: 39.8 nM | CC50 [21, 31]: 138 nM | TGI ([21]; read-out: pTGI (converted)): 74.1 nM | GI50 [22]: 6.31 nM | CC50 [22, 31]: 72.4 nM | TGI ([22]; read-out: pTGI (converted)): 20.4 nM | GI50 [23]: 9.33 nM | CC50 [23, 31]: 112 nM | TGI ([23]; read-out: pTGI (converted)): 42.7 nM | GI50 [24]: 30.9 nM | CC50 [24, 31]: 155 nM | TGI ([24]; read-out: pTGI (converted)): 69.2 nM | GI50 [25]: 47.9 nM | CC50 [25, 31]: 145 nM | TGI ([25]; read-out: pTGI (converted)): 83.2 nM | GI50 [26]: 44.7 nM | CC50 [26, 31]: 145 nM | TGI ([26]; read-out: pTGI (converted)): 79.4 nM | GI50 [27]: 25.1 nM | CC50 [27, 31]: 115 nM | TGI ([27]; read-out: pTGI (converted)): 53.7 nM | GI50 [28]: 6.46 nM | CC50 [28, 31]: 126 nM | TGI ([28]; read-out: pTGI (converted)): 26.9 nM | GI50 [29]: 33.1 nM | CC50 [29, 31]: 132 nM | TGI ([29]; read-out: pTGI (converted)): 66.1 nM | GI50 [30]: 0.115 nM | LC50 [30]: 1.18 nM | TGI ([30]; read-out: pTGI (converted)): 0.436 nM
